From patent publication US20150239890A1, “CRYSTAL OF N-[2-(AMINO)-2-METHYLPROPYL]-2-METHYLPYRAZOLO[1,5-A]PYRIMIDINE-6-CARBOXAMIDE” (SANWA KAGAKU KENKYUSHO CO., LTD., priority 2012, published 2015)
Where two headings read alike, the source gives them in different places.

Columns and labels:
Format in all cases: physicochemical
[1] = Stability test in (sealed) condition at 60° C., purity by HPLC; conditions: for Purity (60° C., sealed) After 4 weeks: sealed brown glass bottle; for Purity (60° C., sealed) Initial stage value: before storage
Procedure: Each test sample of an amorphous compound 1 prepared by a modification method, an amorphous compound 2 obtained by forming a free base of the amorphous compound 1 into hydrochloride in the same method as in Example 1 of Patent Literature 1, a crystal of the compound 1, which was prepared by the method described in Example 1 of the present specification, was charged into a brown glass bottle by each amount of 10 mg and preserved at 60° C., and the purities were compared after 4 weeks. […] Not that the purity measurement was carried out in the following conditions.
Column: Develosil CN-5 (Nomura Chemical), 250 mm×4.6 mmφ
Mobile phase: 20 mM NaH2PO4 buffer (pH 6.9)/MeCN=80/20
Wavelength: UV 247 nm and 220 nm
Concentration of test sample: 100 μg/ml (H2O)

[2] = Hygroscopicity test in condition of 66% RH (20° C.)
Procedure: Each test sample of an amorphous compound 1 prepared in a modification method, an amorphous compound 2 obtained by forming a free base of the amorphous compound 1 into hydrochloride in the same method as in Example 1 of Patent Literature 1, a crystal of the compound 1, which was prepared by the method described in Example 1 of the present specification, was charged into a desiccator at a humidity of 66% RH that was prepared by an aqueous saturated sodium nitrite solution by each amount of 100 mg and left stood at 20° C. Change in weights of each test sample was measured with time and a weight increase ratio was calculated.

[3] = Solubility of the crystal in water; conditions: for solubility: 20 °C, thermodynamic from solid
Procedure: 1. The crystal has peaks around at 9.8°, 17.4°, 18.6°, 25.3°, and 25.8° as diffraction angles represented by 2θ in the powder X-ray diffraction pattern. 2. The crystal has absorption recognized around at wave numbers of 3340 cm^−1, 1664 cm^−1, and 1654 cm^−1 in the infrared absorption spectrum. 3. The crystal has a heat adsorption peak around at 120° C. in the differential scanning calorimetry (DSC). 4. The crystal has a degree of solubility to water of 1 g/ml or higher and the solubility is classified into “very soluble” according to the Japanese Pharmacopoeia.
Solubility (20° C.): >1 g/ml (very soluble)

[4] = 66% RH, 20° C., after 7 days, listed as amorphous compound 1
[5] = 66% RH, 20° C., after 7 days, listed as crystal of the compound 1

Purity (60° C., sealed) After 4 weeks ([1]; 60° C., after 4 weeks) [%] | impurity / area value of an impurity peak, initial stage [1] | Purity (60° C., sealed) Initial stage value [1] [%] | Weight increase ratio (66% RH, 20° C.) After 7 days ([2]; 66% RH, 20° C., after 7 days) [%] | purity After 7 days (66% RH, 20° C.) ([2]; 66% RH, 20° C., after 7 days) [%] | Weight increase ratio (66% RH, 20° C.) Initial stage value [2] | purity, Initial stage value (66% RH, 20° C. test) [2] [%] | Compound | also measured
99.4 | not observed to contain an impurity | 100.0 | 1.7 | 99.8 | 0 | 100.0 | Cc1cc2ncc(C(=O)NCC(C)(C)NCC(=O)N3CCC[C@H]3C#N)cn2n1 [Amorphous compound 1, N-[2-({2-[(2S)-2-cyanopyrrolidine-1-yl]-2-oxoethyl}amino)-2-methylpropyl]-2-methylpyrazolo[1,5-a]pyrimidine-6-carboxamide] | Purity (60° C., sealed) After 4 weeks ([1]; 60° C., after 4 weeks, listed as amorphous compound 1): 99.4%; Weight increase ratio (66% RH, 20° C.) After 7 days [2, 4]: 1.7%; purity After 7 days (66% RH, 20° C.) [2, 4]: 99.8%
100.0 | not observed to contain an impurity | 100.0 | 0.01 | 100.0 | 0 | 100.0 | Cc1cc2ncc(C(=O)NCC(C)(C)NCC(=O)N3CCC[C@H]3C#N)cn2n1 [Crystal of compound 1, N-[2-({2-[(2S)-2-cyanopyrrolidine-1-yl]-2-oxoethyl}amino)-2-methylpropyl]-2-methylpyrazolo[1,5-a]pyrimidine-6-carboxamide] | Purity (60° C., sealed) After 4 weeks ([1]; 60° C., after 4 weeks, listed as crystal of the compound 1): not changed; hygroscopicity (in words) ([2]; 66% RH, 20° C., after 7 days): hygroscopicity was not observed; Weight increase ratio (66% RH, 20° C.) After 7 days [2, 5]: 0.01%; purity After 7 days (66% RH, 20° C.) [2, 5]: change in the purity was also not recognized; Solubility (20° C.) class ([3]; 20° C.): very soluble; solubility class according to the Japanese Pharmacopoeia ([3]; water): very soluble; solubility ([3]; water, water, 20° C., read-out: Solubility (20° C.)): > 1000 mg/mL; solubility ([3]; water, water, water, read-out: degree of solubility to water): ≥ 1000 mg/mL
96.1 | 0.6% | 98.8 | 1.7 | 90.5 | 0 | 97.9 | Cc1cc2ncc(C(=O)NCC(C)(C)NCC(=O)N3CCC[C@H]3C#N)cn2n1 [Amorphous compound 2] | Purity (60° C., sealed) After 4 weeks ([1]; 60° C., after 4 weeks, listed as amorphous compound 2): 96.1%; area value of an impurity peak after 4 weeks ([1]; 60° C., sealed, after 4 weeks): 3.1%; Purity (60° C., sealed) Initial stage value ([1]; listed as amorphous compound 2): 98.8%
